Structures can show the parent of a compound that is named as a salt. Where two headings read alike, the source gives them in different places.
Key:
[1] = target: heteromeric nAChRs containing alpha and beta subunits (αβ; alpha4 beta2 predominant) (Rattus norvegicus, UniProt P09483+P12390); assay type: binding; settings: read-out: αβ [3H]Epibatidine (Ki)
Procedure: The alpha4 beta2 subtype is the predominant nAChR present in brain tissue used in this assay.
Adult male rat cerebral cortices (Pelfreeze Biological, Rogers, Ark.) were homogenized in 39 volumes of ice-cold 50 mM Tris buffer (pH 7.4 at 4° C.) containing 120 mM NaCl, 5 mM KCl, 2 mM CaCl2, and 1 mM MgCl2 and sedimented at 37,000 g for 10 min at 4° C. The supernatant was discarded, the pellet resuspended in the original volume of buffer, and the wash procedure repeated twice more. After the last centrifugation, the pellet was resuspended in 1/10 its original homogenization volume and stored at −80° C. until needed. […] After a 4-h incubation period at room temperature, the samples were vacuum-filtered over GF/B filter papers presoaked in 0.03% polyethylenimine using a Brandel 48-well harvester and washed with 6 mL of ice-cold buffer. The amount of radioactivity trapped on the filter was determined by standard liquid scintillation techniques in a TriCarb 2200 scintillation counter (Packard Instruments, Meriden, Conn.) at approximately 50% efficiency. The binding data were fit using the nonlinear regression analysis routines in Prism (Graphpad, San Diego, Calif.). The Ki values for the test compounds were calculated from their respective IC50 values using the Cheng-Prusoff equation.

[2] = target: homomeric nAChRs containing the alpha7 subunit (α7) (Rattus norvegicus (Rat), UniProt Q05941); test: biochemical; assay type: binding
homomeric nAChRs containing the alpha7 subunit (α7), sequence (Q05941 23-502 limits assumed): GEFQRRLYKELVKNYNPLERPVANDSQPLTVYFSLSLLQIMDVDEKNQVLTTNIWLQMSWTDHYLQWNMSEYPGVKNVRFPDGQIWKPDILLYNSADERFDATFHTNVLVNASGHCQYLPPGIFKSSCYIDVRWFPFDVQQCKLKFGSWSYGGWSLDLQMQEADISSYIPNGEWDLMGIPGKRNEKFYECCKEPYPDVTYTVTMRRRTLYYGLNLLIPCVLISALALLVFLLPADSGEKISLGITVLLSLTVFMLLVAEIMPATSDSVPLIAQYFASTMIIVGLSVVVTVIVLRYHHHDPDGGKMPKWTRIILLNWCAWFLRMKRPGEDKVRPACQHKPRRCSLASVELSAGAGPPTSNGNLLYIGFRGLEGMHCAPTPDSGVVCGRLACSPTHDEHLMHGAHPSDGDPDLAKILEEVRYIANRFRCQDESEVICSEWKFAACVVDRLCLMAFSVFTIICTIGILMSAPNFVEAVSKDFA

mice [3] = test: animal or person; assay type: in vivo, mouse; settings: for ED50 Tail Flick / Tail Flick, % effect at dose (ED50 column): mice, s.c.; for ED50 Tail Flick: tested 5 min after injection; for Tail Flick, % effect at dose (ED50 column): @ 10 mg/kg; for ED50: Mus musculus, sc, 5 min, read-out: ED50 Tail Flick
Procedure: (§1) Antinociception was assessed by the tail-flick method of F. E. D'Amour and D. L. Smith (J. Pharmacol. Exp. Ther. 1941, 72, 74-79). A control response (2-4 sec) was determined for each mouse before treatment, and a test latency was determined after drug administration. In order to minimize tissue damage, a maximum latency of 10 sec was imposed. Antinociceptive response was calculated as percent maximum possible effect (% MPE), where % MPE=[(test−control)/(10−control)]×100. Groups of eight to twelve animals were used for each dose and for each treatment. […] Eight to twelve mice were treated per dose and a minimum of four doses were performed for dose-response curve determination.

mice [4] = assay type: in vivo, mouse; settings: mice; for AD50 Tail Flick: antagonist test; for Tail Flick, % effect at dose: @ 100 μg/kg
Procedure: as §1
(§2) Table 6 provides data for a number of compounds of the invention that were tested according to the assays described above.

mice [5] = assay type: in vivo, mouse; settings: for AD50 Hot Plate: antagonist test
Procedure: Mice were placed into a 10 cm wide glass cylinder on a hot plate (Thermojust Apparatus) maintained at 55.0° C. Two control latencies at least […] apart were determined for each mouse. […] Antinociceptive response was calculated as percent maximum possible effect (% MPE), where % MPE=[(test−control)/40−control)×100]. The reaction time was scored when the animal jumped or licked its paws.
as §2

mice [6] = test: animal or person; assay type: in vivo, mouse; settings: for ED50 Hot Plate / Hot Plate, % effect at dose (ED50 column): mice, s.c.; for ED50 Hot Plate: tested 5 min after injection; for Hot Plate, % effect at dose (ED50 column): @ 10 mg/kg; for ED50: Mus musculus, sc, 5 min, read-out: ED50 Hot Plate
Procedure: Mice were placed into a 10 cm wide glass cylinder on a hot plate (Thermojust Apparatus) maintained at 55.0° C. Two control latencies at least […] apart were determined for each mouse. The normal latency (reaction time) was 8 to 12 sec. Antinociceptive response was calculated as percent maximum possible effect (% MPE), where % MPE=[(test−control)/40−control)×100]. The reaction time was scored when the animal jumped or licked its paws.

mice [7] = test: animal or person; assay type: in vivo, mouse; settings: for ED50 Hypothermia: mice, s.c., rectal temperature 30 min after injection; for ED50: Mus musculus, sc, 0.5 h, read-out: ED50 Hypothermia
Procedure: Rectal temperature was measured by a thermistor probe (inserted 24 mm) and digital thermometer (Yellow Springs Instrument Co., Yellow Springs, Ohio). […] The difference in rectal temperature before and after treatment was calculated for each mouse. The ambient temperature of the laboratory varied from 21-24° C. from day to day.

mice [8] = test: animal or person; assay type: in vivo, mouse; settings: for ED50 Spontaneous Activity: mice, s.c., 5 min after administration, recorded for 10 min; for ED50: Mus musculus, sc, read-out: ED50 Spontaneous Activity
Procedure: Interruptions of the photocell beams (two banks of eight cells each) were then recorded for the next 10 min. Data were expressed as number of photocell interruptions.

[9] = rat cerebral cortex homogenate, 40-50 pM [125I]MLA, read-out: α7 [125I]iodoMLA (Ki)

| Structure (SMILES) | Ki [1] | Ki [2, 9] | AD50 Tail Flick (mice [4]) | ED50 Hypothermia (mice [7]) | ED50 Spontaneous Activity (mice [8]) | Tail Flick, % effect at dose (ED50 column) (mice [3]) | Hot Plate, % effect at dose (ED50 column) (mice [6]) | further results |
| --- | --- | --- | --- | --- | --- | --- | --- | --- |
| Fc1ncc(C2CC3CCC2N3)cc1-c1cccnc1 (stereo not drawn) | 0.35 ± 0.038 nM | 5500 ± 1420 nM | 3 (0.5-24) μg/kg | 3.7 (2.9-4.5) mg/kg | 0.69 (0.4-12.8) mg/kg |  |  | ED50 Tail Flick (mice [3]): 4.9 (3.6-6.7) mg/kg; Hot Plate, % effect at dose (mice [5]; @ 1000 μg/kg): 10% @ 1000; ED50 Hot Plate (mice [6]): 5 (3.7-6.7) mg/kg |
| Fc1ccc(-c2cc(C3CC4CCC3N4)cnc2F)cn1 (stereo not drawn) | 0.049 ± 0.02 nM | 4850 ± 1800 nM |  | 0.68 (0.52-1.1) mg/kg | 0.38 (0.13-1.1) mg/kg |  |  | ED50 Tail Flick (mice [3]): 3.6 (2.7-4.7) mg/kg; Tail Flick, % effect at dose (mice [4]): 1% @ 100; Hot Plate, % effect at dose (mice [5]; @ 100 μg/kg): 1% @ 100; ED50 Hot Plate (mice [6]): 3.27 (2.1-5.3) mg/kg |
| Fc1ncc(C2CC3CCC2N3)cc1-c1ccc(Cl)nc1 (stereo not drawn) | 0.063 ± 0.08 nM | 6600 ± 731 nM | 9 (2-38) μg/kg | 3.11 (1.5-5.1) mg/kg | 1.58 (0.5-4.4) mg/kg | 10% @ 10 | 27% @ 10 | AD50 Hot Plate (mice [5]): 2001 (297-3610) μg/kg |
| Nc1ccc(-c2cc(C3CC4CCC3N4)cnc2F)cn1 (stereo not drawn) | 0.25 ± 0.033 nM | 1470 ± 203 nM | 30 (3-35) μg/kg | 2.8 (2-3.8) mg/kg | 1.84 (0.5-6.3) mg/kg | 5% @ 10 | 8% @ 10 | Hot Plate, % effect at dose (mice [5]; @ 10 μg/kg): 50% @ 10 |
| COc1ccc(-c2cc(C3CC4CCC3N4)cnc2F)cn1 (stereo not drawn) | 0.13 ± 0.027 nM | 524 ± 110 nM | 21 (3-125) μg/kg | 0.77 (0.51-1.2) mg/kg | 0.53 (0.19-1.1) mg/kg |  |  | ED50 Tail Flick (mice [3]): 4.22 (3-5.3) mg/kg; Hot Plate, % effect at dose (mice [5]; @ 100 μg/kg): 0% @ 100; ED50 Hot Plate (mice [6]): 1.72 (0.9-3.4) mg/kg |
| Fc1ncc(C2CC3CCC2N3)cc1-c1ccncc1 (stereo not drawn) | 0.12 ± 0.03 nM | 9700 ± 2400 nM | 12 (10-172) μg/kg | 1.69 (1.1-2.6) mg/kg | 0.38 (0.2-2.7) mg/kg | 13% @ 10 | 40% @ 10 | AD50 Hot Plate (mice [5]): 290 (19-991) μg/kg |
| Fc1cc(-c2cc(C3CC4CCC3N4)cnc2F)ccn1 (stereo not drawn) | 0.067 ± 0.01 nM | 7300 ± 150 nM | 4 (0.1-70) μg/kg | 1.58 (0.97-2.1) mg/kg | 0.17 (0.08-1.5) mg/kg | 5% @ 10 | 18% @ 10 | AD50 Hot Plate (mice [5]): 117 (110-1100) μg/kg |
| Fc1ncc(C2CC3CCC2N3)cc1-c1ccnc(Cl)c1 (stereo not drawn) | 1.18 ± 0.14 nM | > 10000 nM | 320 (45-3262) μg/kg | 2.74 (1.89-3.5) mg/kg | 1.01 (0.27-3.7) mg/kg | 11% @ 10 | 19% @ 10 | AD50 Hot Plate (mice [5]): 1370 (180-1430) μg/kg |
| Nc1cc(-c2cc(C3CC4CCC3N4)cnc2F)ccn1 (stereo not drawn) | 0.13 ± 0.005 nM | 719 ± 101 nM | 9 (0.4-19) μg/kg | 1.87 (0.1-3.5) mg/kg | 0.61 (0.04-9.1) mg/kg | 11% @ 10 | 12% @ 10 | Hot Plate, % effect at dose (mice [5]; @ 10,000 μg/kg): 10% @ 10,000 |
| COc1cc(-c2cc(C3CC4CCC3N4)cnc2F)ccn1 (stereo not drawn) | 0.04 ± 0.012 nM | 7900 ± 1080 nM |  |  |  |  |  |  |
| Fc1cc(-c2cncc(C3CC4CCC3N4)c2)ccn1 (stereo not drawn) (as salt: fumarate) |  |  |  |  |  |  |  | melting point: 210 to 214 °C |
| COc1cc(-c2cncc(C3CC4CCC3N4)c2)ccn1 (stereo not drawn) (as salt: fumarate) |  |  |  |  |  |  |  | melting point: 160 to 164 °C |
| Fc1ncc(C2CC3CCC2N3)cc1-c1cncnc1 (stereo not drawn) (as salt: fumarate) [2-exo-2′-Fluoro-3′-(pyrimidin-5-yl)deschloroepibatidine fumarate] |  |  |  |  |  |  |  | melting point: 160 to 163 °C |
| Clc1ncc(C2CC3CCC2N3)cc1-c1cncnc1 (stereo not drawn) (as salt: fumarate) [Cl, 2-exo-2′-Chloro-3′-(pyrimidin-5-yl)deschloroepibatidine fumarate] |  |  |  |  |  |  |  | melting point: 199 to 203 °C |
| c1ncc(-c2cncc(C3CC4CCC3N4)c2)cn1 (stereo not drawn) (as salt: fumarate) [H, 2-exo-3′-(Pyrimidin-5-yl)deschloroepibatidine fumarate] |  |  |  |  |  |  |  | melting point: 172 to 176 °C |
| Clc1ccc(C2CC3CCC2N3)cn1 (single isomer, unassigned; (-)) [(−)-epibatidine, reference compound] |  |  |  |  |  |  |  | ED50 (mice [6]): 0.004 mg/kg |
| Clc1ncc(C2CC3CCC2N3)cc1-c1cncnc1 (stereo not drawn) [Cl, 2-exo-2′-Chloro-3′-(pyrimidin-5-yl)deschloroepibatidine fumarate] |  |  |  |  |  |  |  | Ki [2]: 170 ± 64 nM; ED50 (mice [3]): 0.28 mg/kg; Tail Flick, % effect at dose (mice [4]): 5% @ 100; Hot Plate, % effect at dose (mice [5]; @ 100 μg/kg): 2% @ 100; ED50 (mice [6]): 0.25 mg/kg; ED50 (mice [7]): 0.03 mg/kg; ED50 (mice [8]): 0.027 mg/kg |
| Fc1ncc(C2CC3CCC2N3)cc1-c1cncnc1 (stereo not drawn) [F, 2-exo-2′-Fluoro-3′-(pyrimidin-5-yl)deschloroepibatidine fumarate] |  |  | 0.24 µg/kg |  |  |  |  | Ki [2]: 1930 nM; ED50 (mice [3]): 2.15 mg/kg; Hot Plate, % effect at dose (mice [5]; @ 100 μg/kg): 33% @ 100; ED50 (mice [6]): 1.2 mg/kg; ED50 (mice [7]): 0.25 mg/kg; ED50 (mice [8]): 0.15 mg/kg |
| c1ncc(-c2cncc(C3CC4CCC3N4)c2)cn1 (stereo not drawn) [H, 2-exo-3′-(Pyrimidin-5-yl)deschloroepibatidine fumarate] |  |  |  |  |  |  |  | Ki [2]: 32.5 ± 1.3 nM; ED50 (mice [3]): 1.5 mg/kg; Tail Flick, % effect at dose (mice [4]): 15% @ 100; Hot Plate, % effect at dose (mice [5]; @ 100 μg/kg): 0% @ 100; ED50 (mice [6]): 1.63 mg/kg; ED50 (mice [7]): 0.6 mg/kg; ED50 (mice [8]): 0.32 mg/kg |
| CN1CCCC1c1cccnc1 (stereo not drawn) [Nicotine, reference compound] |  |  |  |  |  |  |  | ED50 (mice [3]): 1.3 mg/kg; ED50 (mice [6]): 0.65 mg/kg; ED50 (mice [7]): 1 mg/kg; ED50 (mice [8]): 0.5 mg/kg |
